Reference: ChEMBL document CHEMBL5038669, “Development of the First Covalent Monopolar Spindle Kinase 1 (MPS1/TTK) Inhibitor” (J Med Chem, 2022)
Active and inactive are the calls of the source. The rule behind the calls is not given here.

Key:
[1] = target: Ribosomal protein S6 kinase beta-2 (Homo sapiens, UniProt Q9UBS0); test: Inhibition of human recombinant P70S6Kbeta expressed in Sf9 insect cells using [KKRNRTLTK] as substrate in presence of [33P]-ATP by radiometric hotspot kinetic assay
HCT-15 [2] = test: Antiproliferative activity against human HCT-15 cells; type: functional, cell-based
HCT-116 [3] = test: Induction of apoptosis in human HCT-116 cells assessed as upregulation of p21 expression measured after 3 days by Western blot analysis; type: functional, cell-based; conditions: time 3.0 day
Huh-7 [4] = test: Induction of apoptosis in human Huh-7 cells assessed as increase in p21 expression level at 200 nM measured upto 5 days by Western blot analysis; type: functional, cell-based; conditions: time day <=5
[5] = Microsomal stability in mouse liver microsomes assessed as half life at 100 uM pre-incubated for 5 mins with NADPH- regenerating system followed by liver microsomal addition and measured upto 120 mins by HPLC analysis; type: ADME, Microsome; conditions: time <=125 min
Hep 3B2 = test: Induction of apoptosis in human Hep3B cells assessed as increase in p21 expression level at 200 nM measured upto 5 days by Western blot analysis; type: functional, cell-based; conditions: time day <=5
Huh-7 [6] = test: Induction of apoptosis in human Huh-7 cells assessed as down regulation of cyclin B1 expression at 200 nM measured upto 5 days by Western blot analysis; type: functional, cell-based; conditions: time day <=5
MDA-MB-468 = test: Cytotoxicity against human MDA-MB-468 cells assessed as reduction in cell viability incubated for 5 days by XTT assay; type: functional, cell-based; conditions: time 5.0 day
[7] = target: T1, Dual specificity protein kinase TTK (Homo sapiens, UniProt P33981); test: Inhibition of recombinant human full length N-terminal GST-fused MPS1 (1 to 857 residues) using histone H3 as substrate measured after 2 hrs in presence of DTT by TR-FRET assay
T1 sequence (P33981 whole entry): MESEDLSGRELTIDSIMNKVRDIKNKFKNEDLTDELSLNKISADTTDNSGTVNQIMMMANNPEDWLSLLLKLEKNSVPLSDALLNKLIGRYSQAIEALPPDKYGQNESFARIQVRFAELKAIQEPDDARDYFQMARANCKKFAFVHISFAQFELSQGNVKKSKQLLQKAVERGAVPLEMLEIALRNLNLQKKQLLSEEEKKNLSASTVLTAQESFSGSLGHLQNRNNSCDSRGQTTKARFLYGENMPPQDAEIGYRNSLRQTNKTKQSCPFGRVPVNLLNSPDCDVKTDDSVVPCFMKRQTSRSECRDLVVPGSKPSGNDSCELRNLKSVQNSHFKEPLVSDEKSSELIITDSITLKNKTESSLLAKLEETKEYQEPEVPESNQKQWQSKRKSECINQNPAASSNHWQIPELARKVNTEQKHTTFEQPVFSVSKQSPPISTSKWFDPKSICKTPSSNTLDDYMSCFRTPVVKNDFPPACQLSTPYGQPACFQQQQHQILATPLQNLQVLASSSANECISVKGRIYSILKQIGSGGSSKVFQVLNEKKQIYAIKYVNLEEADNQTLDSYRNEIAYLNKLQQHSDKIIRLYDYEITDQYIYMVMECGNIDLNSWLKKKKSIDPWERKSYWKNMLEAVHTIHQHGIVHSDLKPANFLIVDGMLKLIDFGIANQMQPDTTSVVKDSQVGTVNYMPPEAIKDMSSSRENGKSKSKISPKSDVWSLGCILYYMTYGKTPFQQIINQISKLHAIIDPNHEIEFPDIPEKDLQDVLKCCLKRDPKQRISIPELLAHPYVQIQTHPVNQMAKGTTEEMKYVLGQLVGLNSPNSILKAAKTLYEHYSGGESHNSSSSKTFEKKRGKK

HCT-116 [8] = test: Antiproliferative activity against human HCT-116 cells; type: functional, cell-based
COLO 205 = test: Antiproliferative activity against human COLO 205 cells; type: functional, cell-based
[9] = target: T2, Serine/threonine-protein kinase 17B (Homo sapiens) (UniProt O94768); conditions: dose 10.0 µM
T2 sequence (whole entry): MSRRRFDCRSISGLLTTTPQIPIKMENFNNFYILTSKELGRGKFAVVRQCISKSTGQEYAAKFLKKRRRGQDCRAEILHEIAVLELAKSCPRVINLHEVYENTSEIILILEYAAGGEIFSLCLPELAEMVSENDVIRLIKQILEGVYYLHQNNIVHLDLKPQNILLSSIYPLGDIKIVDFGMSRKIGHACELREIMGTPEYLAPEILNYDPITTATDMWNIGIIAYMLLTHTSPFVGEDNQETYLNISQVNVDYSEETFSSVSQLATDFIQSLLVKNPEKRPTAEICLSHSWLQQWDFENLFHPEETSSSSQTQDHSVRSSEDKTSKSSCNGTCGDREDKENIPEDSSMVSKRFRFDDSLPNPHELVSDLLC

SW-620 = test: Antiproliferative activity against human SW-620 cells; type: functional, cell-based
SNU-387 = test: Induction of apoptosis in human SNU-387 cells assessed as down regulation of cyclin B1 expression at 200 nM measured upto 5 days by Western blot analysis; type: functional, cell-based; conditions: time day <=5
HCT-116 [10] = test: Cytotoxicity against human HCT-116 cells assessed as reduction in cell viability incubated for 5 days by XTT assay; type: functional, cell-based; conditions: time 5.0 day
HCT-15 [11] = test: Cytotoxicity against human HCT-15 cells assessed as reduction in cell viability incubated for 5 days by XTT assay; type: functional, cell-based; conditions: time 5.0 day
HCT-116 [12] = test: Induction of apoptosis in human HCT-116 cells assessed as upregulation of p53 expression measured after 3 days by Western blot analysis; type: functional, cell-based; conditions: time 3.0 day
HLE = test: Antiproliferative activity against human HLE cells incubated for 5 days by XTT assay; type: functional, cell-based; conditions: time 5.0 day
[13] = target: T1, Dual specificity protein kinase TTK; test: Displacement of tracer K9 from NanoLuc-fused MPS1 (unknown origin) expressed in HEK293T cells measured after 2 hrs by NanoBRET assay; type: cell-based
PLC-PRF-5 = test: Antiproliferative activity against human Alex cells incubated for 5 days by XTT assay; type: functional, cell-based; conditions: time 5.0 day
HCT-116 [14] = test: Induction of apoptosis in human HCT-116 cells assessed as down regulation of cyclin B1 expression measured after 3 days by Western blot analysis; type: functional, cell-based; conditions: time 3.0 day
Huh-7 [15] = test: Induction of apoptosis in human Huh-7 cells assessed as increase in phospho-gammaH2A.X expression level at 200 nM measured upto 5 days by Western blot analysis; type: functional, cell-based; conditions: time day <=5
HCT-116 [16] = test: Induction of apoptosis in human HCT-116 cells assessed as increase in cleaved PARP level measured for 3 days by Western blot analysis; type: functional, cell-based; conditions: time 3.0 day
[17] = target: T1, Dual specificity protein kinase TTK; test: Inhibition of recombinant human full length N-terminal GST-fused MPS1 (1 to 857 residues) using histone H3 as substrate measured after 1 hr in presence of DTT by TR-FRET assay
HuH-6 = test: Antiproliferative activity against human HuH-6 cells incubated for 5 days by XTT assay; type: functional, cell-based; conditions: time 5.0 day
[18] = target: T1, Dual specificity protein kinase TTK; test: Inhibition of recombinant human full length N-terminal GST-fused MPS1 (1 to 857 residues) using histone H3 as substrate measured after 4 hrs in presence of DTT by TR-FRET assay
HT-29 = test: Antiproliferative activity against human HT-29 cells; type: functional, cell-based
[19] = target: T3, Dual specificity protein kinase TTK (Homo sapiens) (UniProt P33981); test: Covalent inhibition of human full length N-terminal GST-fused MPS1 (1 to 857 residues) assessed as Kinact/Ki ratio by TR-FRET assay
T3 sequence (whole entry): T1 sequence (P33981 whole entry)

Huh-7 [20] = test: Antiproliferative activity against human Huh-7 cells incubated for 5 days by XTT assay; type: functional, cell-based; conditions: time 5.0 day

Sequence of Ribosomal protein S6 kinase beta-2 (Q9UBS0 whole entry): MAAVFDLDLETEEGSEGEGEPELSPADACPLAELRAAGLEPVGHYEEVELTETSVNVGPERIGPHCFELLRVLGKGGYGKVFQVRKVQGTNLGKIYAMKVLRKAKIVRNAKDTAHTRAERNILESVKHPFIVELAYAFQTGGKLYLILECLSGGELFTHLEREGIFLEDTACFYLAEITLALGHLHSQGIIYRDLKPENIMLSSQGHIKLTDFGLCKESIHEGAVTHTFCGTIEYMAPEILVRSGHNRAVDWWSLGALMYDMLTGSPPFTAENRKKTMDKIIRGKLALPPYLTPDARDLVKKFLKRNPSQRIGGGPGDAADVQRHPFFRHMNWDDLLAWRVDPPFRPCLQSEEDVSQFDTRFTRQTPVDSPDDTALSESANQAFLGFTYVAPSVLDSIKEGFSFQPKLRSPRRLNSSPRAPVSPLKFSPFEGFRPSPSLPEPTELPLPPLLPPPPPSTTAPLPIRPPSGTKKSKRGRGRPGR

- IC50 [1]: 1650 nM
- half-life at 100 µM [5]: 1 h
- IC50 [7]: 20 nM
- ΔTm [9]: 11.9 °C
- IC50 [13]: 22.4 nM
- IC50 [17]: 28.1 nM
- IC50 [18]: 13.8 nM
- Ratio [19]: 1.71 10^4/M/s
SMILES: C=CC(=O)Nc1cc(N2CCN(C)CC2)ccc1Nc1ncc2c(n1)-n1ccc(C(=O)Nc3c(CC)cccc3CC)c1CC2
- Activity (HCT-15 [2]): Active
- Activity (HCT-116 [3]): Active
- Activity (Huh-7 [4]): Active
- Activity (Hep 3B2): Active
- Activity (Huh-7 [6]): Active
- Activity (MDA-MB-468): Active
- Activity (HCT-116 [8]): Active
- Activity (COLO 205): Active
- Activity (SW-620): Active
- Activity (SNU-387): Active
- Activity (HCT-116 [10]): Active
- Activity (HCT-15 [11]): Active
- Activity (HCT-116 [12]): Active
- Activity (HLE): Active
- Activity (PLC-PRF-5): Active
- Activity (HCT-116 [14]): Active
- Activity (Huh-7 [15]): Active
- Activity (HCT-116 [16]): Active
- Activity (HuH-6): Active
- Activity (HT-29): Active
- Activity (Huh-7 [20]): Active
